# Data from patent US5663197A, “2-(1-hydroxyethyl)-5-hydroxynaphtho[2,3-b]furan-4,9-dione and antitumor agents comprising this compound” (priority 1992, dated 1997).
# Test system: carcinogenic promotion (skin papillomas in mice)
# Experiment: Inhibition of two-step skin carcinogenesis in mice skin
# Assay type: in vivo, mouse (female ICR)
# Conditions: DMBA initiator, TPA promoter, 20 weeks; FIG. 28 (NFD 85 nmol), FIG. 29 (lapacoal)
# Protocol: Female ICR mice were used as test animals. Fifteen mice were housed in a cage and kept on a commercial pellet diet and drinking water ad libitum until the end of the experiment. The mice were purchased at their age of six-week-old. Dorsal hair of mice was shaved, and next day, 390 nmol of 7,12-dimethylbenz(a)anthracene (DMBA) in 0.1 ml acetone was applied, as an initiator, on the shaved back. One week later, 1.7 nmol of 12-O-tetradecanoylphorbol-13-acetate (TPA) in 0.1 ml acetone was applied, as a promoter, to the same place twice a week. This procedure was repeated for 20 weeks.
# Mice were observed once a week for the number of papillomas larger than 1 mm, and the experimental results were given as the percentage of papilloma-bearing mice in each group and the number of papillomas per mouse.
smiles,measurement,value
"CC(C)=CCC1=C(O)C(=O)c2ccccc2C1=O [lapacoal, reference compound]",inhibitory effect on carcinogenic promotion in skin,inhibitory effect
